Experimental data as given in patent US7592326B2, “Method for stimulating the immune, inflammatory or neuroprotective response” (priority 2004, dated 2009).

Key:
immature DCs = experiment: Surface phenotype of DCs exposed to c-di-GMP (flow cytometry); assay type: cell-based, human
Method: Peripheral blood mononuclear cells (PBMC) were isolated by Ficoll-Hypaque gradient separation of buffy coats obtained from healthy volunteer blood donors by the Transfusion Center of Università Degli Studi “La Sapienza” Rome. DCs were generated from monocytes purified from PBMC by positive selection using magnetic cell separation columns and CD14 Microbeads. Highly enriched monocytes (>95% CD14^+) were cultured at 6×10^5/ml in RPMI 1640 medium supplemented with 15% heat-inactivated fetal calf serum (FCS), L-glutamine and penicillin-streptomycin and 250 ng/ml granulocyte macrophage-colony stimulating factor (GM-CSF) and 500 U/ml interleukin (IL)-4 at 37° C. for 5 days. Differentiation to DC was assessed both by morphologic observation and the detection of specific surface markers by flow cytometry. These cells were CD14^−, CD1a^+, HLA-DR^intermediate, HLA-ABC^intermediate CD80^low, CD86^low consistent with an immature DC phenotype. Untreated immature DCs were used as controls. […] LPS-treated DCs became stimulated/activated and produced CD83^+, HLA-DR^high, HLA-ABC^high consistent with a mature DC phenotype. […] Experiments using trypan blue exclusion tests were always performed in order to exclude any aspecific toxicity of c-di-GMP. NaCl (0.9%) used to resuspend the compound was always included as control. Cell staining was performed using mouse monoclonal antibodies FITC- or PE-conjugate. The following mAbs were used: CD14 (IgG1, PE), CD1a (IgG1, FITC), HLA-DR (IgG2a, FITC), HLA-ABC (IgG1, FITC), CD80 (IgG1, FITC), CD86 (IgG1, FITC); CD83 (IgG2b, PE), CXCR4 (IgG2aPE), CCR5 (IgG2a, FITC), CD32 (IgG2b, FITC). CD40, CCR7 and mannose receptor (MR) staining was performed using mouse mAb followed by FITC-conjugated affinity purified, isotype-specific goat anti-mouse Abs. Samples were analyzed using a FACScan flow cytometer and CellQuest software (Becton Dickinson). To investigate whether c-di-GMP induced phenotypic differentiation of human DCs, immature and mature DCs were cultured with c-di-GMP for 24 h and then analyzed for surface molecule expression.

[1] = tested on: monocytes and granulocytes; experiment: Monocyte and granulocyte recruitment after intraperitoneal injection (FACS of peritoneal fluid); assay type: in vivo, C57BL/6 mice
Method: C57BL/6 mice were injected with a volume of 500 ul containing 200 nmol c-di-GMP. […] Fluid was incubated in PBS BSA azide +24G2 (anti Fc) for 15 min at 4° C., washed in PBS, washed in PBS then stained and analyzed by FACs analysis (PBS BSA azide, 30 min 4° C.). Cells were stained with directly coupled fluorescent mAbs combinations in […] FACS buffer and further collected on a FACScalibur cytofluorometer (Becton Dickinson, BD). The following mAbs were purchased: fluorescein (FITC)-coupled M1/70 (anti-CD11b, BD Pharmingen), phycoerythrin (PE)-coupled 1A8 (anti-LY-6G, BD Pharmingen), 7/4 (Caltag), allophycocyanin (APC)-coupled F4/80 (Caltag). Cells were gated according to size and scatter to eliminate dead cells and debris from analysis.

[2] = pH 10
Lethality in CD1 mice = details: 50 μl of 200 μM, after 24 h

Nc1nc(=O)c2ncn([C@@H]3OC4COP(=O)(O)O[C@H]5[C@@H](O)[C@H](n6cnc7c(=O)nc(N)[nH]c76)O[C@@H]5COP(=O)(O)OC4C3O)c2[nH]1 (stereo partly shown) [c-di-GMP, Bis(3′→5′)-cyclic diguanylic acid]
effect in dose-response titration on DCs (immature DCs; 0.5 μM c-di-GMP): No effect | effect in dose-response titration on DCs (immature DCs; 200 μM c-di-GMP): inconsistent results | LPS-induced maturation (immature DCs; DCs with LPS, data not shown): did not interfere | surface expression of CD1a, HLA-ABC, CCR5 and CD40 (immature DCs; data not shown): did not affect | expression of chemokine receptor CXCR4 (immature DCs; immature DCs, 24 h, FIG. 1C): significantly increased | expression of chemokine receptor CCR7 (immature DCs; immature DCs, 24 h, FIG. 1D): significantly increased | expression of CD86 (B7-2) (percentage of positive cells) (immature DCs; immature DCs, 24 h, FIG. 1F): up-regulated | CD32 expression (immature DCs; immature DCs, 24 h, FIG. 1H): not affected | expression of CD83 (mean fluorescence) (immature DCs; immature DCs, 24 h, dose-dependent, no effect at high concentrations, FIG. 1B): slightly up-regulated | expression of CD80 (B7-1) (immature DCs; immature DCs, 24 h, dose-dependent, FIG. 1E): slightly increased | expression of mannose receptor (MR) (mean fluorescence) (immature DCs; immature DCs, 24 h, dose-dependent, FIG. 1G): reduced | expression of HLA-DR (MFI, percentage of positive cells) (immature DCs; immature DCs, c-di-GMP 5, 50, 100 μM, 24 h, FIG. 1A): up-regulated | recruitment of F4/80^high LY-6G^med (monocytes) and F4/80^med LY-6G^high (granulocytes) ([1]; 200 nmol i.p., peritoneal lavage at 18 hours): induced the recruitment | macrophage and granulocyte recruitment in vivo relative to comparators ([1]; under the conditions tested): to a greater extent than CpG ODN and LPS | stability at physiological conditions [2]: stable | lethality in CD1 mice (Lethality in CD1 mice): non-lethal
